# Measured values reported in patent publication US20230338345A1, “DRUG COMBINATION AND USE THEREOF” (NATURAL MEDICINE INSTITUTE OF ZHEJIANG YANGSHENGTANG CO., …, priority 2020, published 2023).
# Like-named read-outs stand apart in the source and are kept apart here.
# Columns and labels:
# [1] = mouse, in vivo
# Procedure: (§1) (2) After tumor formation, the mice were divided into four experimental groups, namely, a blank control, a roflumilast group, a sodium ascorbate group, and a roflumilast+sodium ascorbate group. The mice in the roflumilast+sodium ascorbate group were intraperitoneally injected with roflumilast at 4 mg/kg and intravenously injected with sodium ascorbate at 1.5 g/kg every three days, for 5 administrations. At the same time, the roflumilast group and the sodium ascorbate group were separately injected with roflumilast and sodium ascorbate at the same dose in the same way; and normal saline was injected at the same dose in the blank control. The day of the first injection was taken as Day 1, and then the mice were tested and recorded in terms of body weight and tumor size: tumor volume (mm^3)=length (L) ×width (W) 2/2. Luciferin fluorescence imaging was conducted on tumors. That is, a 1 mg/mL D-luciferin potassium aqueous solution was formulated; each mouse was intraperitoneally injected with 100 μL of the D-luciferin potassium aqueous solution, and 10 minutes after injection, was subjected to luciferin fluorescence imaging with a small animal in vivo imager (Model: IVIS Lumina XRMS Series III).
# [2] = Body weight of tumor-bearing mice (Example 1); settings: roflumilast 4 mg/kg i.p., sodium ascorbate 1.5 g/kg i.v., every three days, 5 administrations; compared with the control
# Procedure: as §1
structure (smiles),measurement,setting,value
O=C(Nc1c(Cl)cncc1Cl)c1ccc(OC(F)F)c(OCC2CC2)c1 [roflumilast],effect on the body weight of mice,[1],no effect on the body weight of mice
O=C1O[C@H]([C@@H](O)CO)C([O-])=C1O.[Na+] [sodium ascorbate],effect on the body weight of mice,[2],no effect on the body weight of mice
